Measured values reported in article PMC5025780, “Copper(II) ions affect the gating dynamics of the 20S proteasome: a molecular and in cell study” (Scientific Reports, 2016).

Key:
Type in all cases: biochemical
[1] = target: T1, human 20S proteasome (hCP), ChT-L activity; experiment: ChT-L peptidase activity of isolated hCP (Suc-LLVY-AMC fluorogenic substrate); conditions: hCP 2 nM, 1 h preincubation with ions, Tris 25 mM pH 7.6, 37 °C, no SDS; read-out: IC50 ChT-L
T1 construct: purchased Boston Biochem (Cambridge, MA, USA)
Source text: (§1) Purified human 20S proteasome (hCP) and the fluorogenic substrates Suc-LLVY-AMC, Z-Leu-Leu-Glu-AMC, and Ac-Arg-Leu-Arg-AMC used to assay the ChT-L, T-L, and C-L activity, were from Boston Biochem (Cambridge, MA, USA). Bathocuproinedisulfonic acid disodium salt (BCS), dithiothreitol (DTT), N-Acetyl-L-Cysteine (NAC), Sodium dodecylsulphate (SDS) as well as CuCl2 and Zn(NO3)2 were from Sigma-Aldrich (St. Louis, MO). Proteasome inhibitors Epoxomicin were obtained from Enzo Life Science. Wild type 20S proteasome isolated from Saccharomices Cerevisiae (yCP) and a mutant (α3ΔN) where nine residues of the N-terminal tail of the α3 subunit are deleted to provide a permanently open-gate conformations were isolated as described elsewhere.
(§2) Peptidase activities of hCP (2 nM) were assayed on in 50 μL Tris 25 mM pH 7.6, at 37 °C with 100 μM of the fluorogenic substrate. hCP was incubated with Cu(II)/Zn(II) ions for 1 h prior activity assays. The fluorescence signal activated by peptide cleavage was recorded at 440 nm (excitation at 360 nm) for 45 min, by a Varioskan (Thermo^©) plate reader in 384 multiwell plates. Three replicates were performed for each data point. Data were reported as normalized percentages of residual activity. The potency (IC50) was calculated from the value of the dose response plot corresponding at a fractional activity of 50%. The IC50 values were determined using a non linear fit of experimental data in according to equation: […]
(§3) The midpoint of this function occurs at a fractional activity value of 50%, corresponding to half inhibition of the target enzyme. The IC50 values and their standard errors were deduced from the fitting. To evaluate if copper is a reversible PI, we measured the ChT-L activity of hCP incubated with Cu(II) (2.20 μM) before and after addition of an equimolar amount of EDTA.

[2] = target: T2, human 20S proteasome (hCP), T-L activity; experiment: T-L peptidase activity of isolated hCP (fluorogenic substrate); conditions: hCP 2 nM, 1 h preincubation with ions, Tris 25 mM pH 7.6, 37 °C, no SDS; read-out: IC50 T-L
T2 construct: purchased Boston Biochem (Cambridge, MA, USA)
Source text: as §1, §2, §3

[3] = target: T3, human 20S proteasome (hCP), C-L activity; experiment: C-L peptidase activity of isolated hCP (fluorogenic substrate); conditions: hCP 2 nM, 1 h preincubation with ions, Tris 25 mM pH 7.6, 37 °C, no SDS; read-out: IC50 C-L
T3 construct: purchased Boston Biochem (Cambridge, MA, USA)
Source text: as §1, §2, §3

[4] = target: T4, human 20S proteasome (hCP); experiment: Peptidase activities of isolated hCP, all three (ChT-L, T-L, C-L); conditions: T-L and C-L of hCP, no SDS, read-out: IC50 values, range over the three peptidase activities
T4 construct: purchased Boston Biochem (Cambridge, MA, USA)
Source text: as §1
as §2, with “The potency (IC50) was calculated from the value of the dose response plot corresponding at a fractional activity of 50%.” left out

Q: With `O=[N+]([O-])[O-].O=[N+]([O-])[O-].[Zn+2]` [Zn(II), Zn(NO3)2, reference compound] as the compound, how does the IC50 [1] read?
A: The IC50 was 5.99 µM.

Q: What about the IC50 [2] of the same compound?
A: The IC50 was 4.16 µM.

Q: And the IC50 [3]?
A: The IC50 was 5.84 µM.

Q: And the IC50 [4]?
A: Its IC50 is 4.16 to 5.99 µM.
